According to article PMC11233931, “Remodeling tumor‐associated macrophage for anti‐cancer effects by rational design of irreversible inhibition of mitogen‐activated protein kinase‐activated protein kinase 2” (MedComm, 2024):

Tests used:
Test in all cases: Eurofins kinase selectivity profile against 380 other human recombinant kinases (Table S2)
Type in all cases: biochemical
[1] = molecular target: T1, 380 human recombinant protein kinases (Homo sapiens, UniProt Q13627); conditions: DYRK1A(h), read-out: Inhibition rate
T1 construct: purchased Eurofins (Celle Lévescault)
Summary of the method: (§1)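 Commercial selectivity screen of the test compound against a panel of 380 human recombinant protein kinases, run by an outside contractor at several compound concentrations to check whether its potency was specific for MK2.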

[2] = molecular target: T2, 380 human recombinant protein kinases (Homo sapiens, UniProt P20794); conditions: MAK(h), read-out: Inhibition rate
T2 construct: purchased Eurofins (Celle Lévescault)
T2 sequence (P20794 1-623): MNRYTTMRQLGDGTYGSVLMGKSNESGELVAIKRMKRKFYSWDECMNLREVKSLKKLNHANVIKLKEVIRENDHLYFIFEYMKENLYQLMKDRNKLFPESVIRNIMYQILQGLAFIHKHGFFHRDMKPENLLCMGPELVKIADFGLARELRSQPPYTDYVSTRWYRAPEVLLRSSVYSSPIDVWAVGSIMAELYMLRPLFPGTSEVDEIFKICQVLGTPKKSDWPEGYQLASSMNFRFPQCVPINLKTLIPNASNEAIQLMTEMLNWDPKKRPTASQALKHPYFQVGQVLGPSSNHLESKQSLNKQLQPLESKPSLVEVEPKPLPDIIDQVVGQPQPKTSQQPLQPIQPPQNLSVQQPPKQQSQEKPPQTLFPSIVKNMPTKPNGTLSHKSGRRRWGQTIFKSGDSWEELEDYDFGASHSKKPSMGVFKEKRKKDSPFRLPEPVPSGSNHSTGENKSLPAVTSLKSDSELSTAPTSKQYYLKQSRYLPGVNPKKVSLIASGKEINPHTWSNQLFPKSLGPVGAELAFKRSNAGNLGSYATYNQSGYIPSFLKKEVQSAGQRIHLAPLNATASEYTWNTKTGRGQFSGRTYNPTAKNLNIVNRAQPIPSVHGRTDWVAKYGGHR
Summary of the method: as §1

[3] = molecular target: T3, 380 human recombinant protein kinases (Homo sapiens, UniProt Q13554); conditions: CaMKIIβ(h), read-out: Inhibition rate
T3 construct: purchased Eurofins (Celle Lévescault)
T3 sequence (Q13554 whole entry): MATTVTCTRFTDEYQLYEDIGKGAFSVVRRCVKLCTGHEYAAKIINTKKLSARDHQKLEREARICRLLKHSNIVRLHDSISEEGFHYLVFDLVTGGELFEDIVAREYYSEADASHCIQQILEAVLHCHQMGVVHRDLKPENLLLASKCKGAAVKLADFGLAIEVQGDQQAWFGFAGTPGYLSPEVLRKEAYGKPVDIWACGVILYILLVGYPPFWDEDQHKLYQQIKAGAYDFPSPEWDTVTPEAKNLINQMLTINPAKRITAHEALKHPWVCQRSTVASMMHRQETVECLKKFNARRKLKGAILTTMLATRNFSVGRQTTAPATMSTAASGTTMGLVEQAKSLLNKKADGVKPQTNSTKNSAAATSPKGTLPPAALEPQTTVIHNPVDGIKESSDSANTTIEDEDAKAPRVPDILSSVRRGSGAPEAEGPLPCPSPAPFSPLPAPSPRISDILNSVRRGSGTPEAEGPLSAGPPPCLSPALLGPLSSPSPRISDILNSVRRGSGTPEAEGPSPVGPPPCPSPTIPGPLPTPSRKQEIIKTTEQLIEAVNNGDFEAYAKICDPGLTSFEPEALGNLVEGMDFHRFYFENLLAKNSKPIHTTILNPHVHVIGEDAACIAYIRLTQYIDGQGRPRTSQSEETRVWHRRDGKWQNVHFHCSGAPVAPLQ
Summary of the method: as §1

[4] = molecular target: T4, 380 human recombinant protein kinases (Homo sapiens, UniProt Q9NZJ5); conditions: PEK(h), read-out: Inhibition rate
T4 construct: purchased Eurofins (Celle Lévescault)
T4 sequence (Q9NZJ5 30-1116): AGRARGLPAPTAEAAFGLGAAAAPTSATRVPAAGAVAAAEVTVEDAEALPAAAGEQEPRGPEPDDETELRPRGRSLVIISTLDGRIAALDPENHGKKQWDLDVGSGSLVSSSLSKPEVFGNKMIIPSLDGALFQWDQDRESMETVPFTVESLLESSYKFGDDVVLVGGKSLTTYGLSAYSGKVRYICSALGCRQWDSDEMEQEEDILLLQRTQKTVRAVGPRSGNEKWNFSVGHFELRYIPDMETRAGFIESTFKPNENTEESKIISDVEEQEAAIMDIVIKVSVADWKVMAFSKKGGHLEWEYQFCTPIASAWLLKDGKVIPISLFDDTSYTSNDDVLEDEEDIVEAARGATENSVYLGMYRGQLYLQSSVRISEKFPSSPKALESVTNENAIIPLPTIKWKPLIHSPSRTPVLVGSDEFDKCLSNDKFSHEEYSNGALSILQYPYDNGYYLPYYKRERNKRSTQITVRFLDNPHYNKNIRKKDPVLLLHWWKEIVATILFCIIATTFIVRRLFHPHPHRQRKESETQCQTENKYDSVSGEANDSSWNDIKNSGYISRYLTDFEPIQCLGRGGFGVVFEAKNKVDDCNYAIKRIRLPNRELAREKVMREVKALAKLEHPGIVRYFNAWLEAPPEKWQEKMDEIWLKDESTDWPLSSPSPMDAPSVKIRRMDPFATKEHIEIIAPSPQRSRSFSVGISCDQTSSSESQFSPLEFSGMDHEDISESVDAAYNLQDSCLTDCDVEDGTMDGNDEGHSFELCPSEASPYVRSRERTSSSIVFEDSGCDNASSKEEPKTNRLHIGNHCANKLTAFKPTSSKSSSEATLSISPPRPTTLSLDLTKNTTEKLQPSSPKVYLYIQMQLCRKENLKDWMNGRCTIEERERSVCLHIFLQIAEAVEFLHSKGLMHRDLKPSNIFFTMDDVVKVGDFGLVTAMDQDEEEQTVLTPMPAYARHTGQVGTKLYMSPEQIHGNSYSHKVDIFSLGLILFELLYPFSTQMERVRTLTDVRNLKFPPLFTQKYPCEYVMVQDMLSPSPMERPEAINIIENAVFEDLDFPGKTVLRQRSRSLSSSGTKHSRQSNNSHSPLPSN
Summary of the method: as §1

[5] = molecular target: T5, 380 human recombinant protein kinases (Homo sapiens, UniProt Q9UEW8); conditions: STK39(h), read-out: Inhibition rate (%)
T5 construct: purchased Eurofins (Celle Lévescault)
Summary of the method: as §1

[6] = molecular target: T6, 380 human recombinant protein kinases (Homo sapiens, UniProt P08631); conditions: Hck(h), read-out: Inhibition rate
T6 construct: purchased Eurofins (Celle Lévescault)
T6 sequence (P08631 whole entry): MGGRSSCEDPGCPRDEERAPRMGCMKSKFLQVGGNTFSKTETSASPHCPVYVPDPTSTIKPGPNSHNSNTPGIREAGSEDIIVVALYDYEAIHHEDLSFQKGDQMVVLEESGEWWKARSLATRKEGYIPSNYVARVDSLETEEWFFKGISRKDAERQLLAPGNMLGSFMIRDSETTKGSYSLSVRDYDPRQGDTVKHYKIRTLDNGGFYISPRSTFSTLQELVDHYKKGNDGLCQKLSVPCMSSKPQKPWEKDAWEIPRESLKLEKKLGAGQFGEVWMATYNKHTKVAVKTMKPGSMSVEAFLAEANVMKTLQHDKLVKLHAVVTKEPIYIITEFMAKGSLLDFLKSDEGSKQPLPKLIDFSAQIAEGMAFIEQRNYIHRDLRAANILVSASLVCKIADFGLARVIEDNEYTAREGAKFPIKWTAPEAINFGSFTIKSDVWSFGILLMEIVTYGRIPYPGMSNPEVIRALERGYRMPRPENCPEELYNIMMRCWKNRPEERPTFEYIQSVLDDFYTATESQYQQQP
Summary of the method: as §1

[7] = molecular target: T7, 380 human recombinant protein kinases (Homo sapiens, UniProt Q2M2I8); conditions: AAK1(h), read-out: Inhibition rate
T7 construct: purchased Eurofins (Celle Lévescault)
T7 sequence (Q2M2I8 whole entry): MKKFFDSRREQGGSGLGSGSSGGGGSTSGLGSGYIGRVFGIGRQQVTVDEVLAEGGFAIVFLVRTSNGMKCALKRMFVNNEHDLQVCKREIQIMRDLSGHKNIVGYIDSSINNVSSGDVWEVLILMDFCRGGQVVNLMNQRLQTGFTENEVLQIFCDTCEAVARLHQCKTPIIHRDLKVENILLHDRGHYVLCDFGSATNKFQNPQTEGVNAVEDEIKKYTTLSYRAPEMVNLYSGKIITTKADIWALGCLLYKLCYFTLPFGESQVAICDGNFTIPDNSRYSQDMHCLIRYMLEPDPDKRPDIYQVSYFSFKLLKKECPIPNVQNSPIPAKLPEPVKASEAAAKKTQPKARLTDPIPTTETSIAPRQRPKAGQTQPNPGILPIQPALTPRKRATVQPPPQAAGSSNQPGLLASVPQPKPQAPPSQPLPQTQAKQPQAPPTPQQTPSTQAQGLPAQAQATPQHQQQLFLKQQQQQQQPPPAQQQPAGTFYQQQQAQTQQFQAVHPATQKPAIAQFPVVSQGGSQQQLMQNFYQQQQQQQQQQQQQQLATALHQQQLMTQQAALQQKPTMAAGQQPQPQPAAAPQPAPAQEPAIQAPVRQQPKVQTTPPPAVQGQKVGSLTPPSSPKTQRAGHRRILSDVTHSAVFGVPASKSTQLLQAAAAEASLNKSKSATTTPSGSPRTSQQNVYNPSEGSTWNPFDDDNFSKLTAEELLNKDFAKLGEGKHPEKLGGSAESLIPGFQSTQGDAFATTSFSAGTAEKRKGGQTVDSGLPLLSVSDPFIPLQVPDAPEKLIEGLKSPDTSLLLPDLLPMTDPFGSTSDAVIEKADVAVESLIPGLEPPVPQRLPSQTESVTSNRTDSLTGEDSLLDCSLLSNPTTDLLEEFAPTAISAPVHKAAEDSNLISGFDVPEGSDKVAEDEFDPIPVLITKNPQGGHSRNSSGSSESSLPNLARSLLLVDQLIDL
Summary of the method: as §1

[8] = molecular target: T8, 380 human recombinant protein kinases (Homo sapiens, UniProt Q02750); conditions: MEK1(h), read-out: Inhibition rate
T8 construct: purchased Eurofins (Celle Lévescault)
T8 sequence (Q02750 whole entry): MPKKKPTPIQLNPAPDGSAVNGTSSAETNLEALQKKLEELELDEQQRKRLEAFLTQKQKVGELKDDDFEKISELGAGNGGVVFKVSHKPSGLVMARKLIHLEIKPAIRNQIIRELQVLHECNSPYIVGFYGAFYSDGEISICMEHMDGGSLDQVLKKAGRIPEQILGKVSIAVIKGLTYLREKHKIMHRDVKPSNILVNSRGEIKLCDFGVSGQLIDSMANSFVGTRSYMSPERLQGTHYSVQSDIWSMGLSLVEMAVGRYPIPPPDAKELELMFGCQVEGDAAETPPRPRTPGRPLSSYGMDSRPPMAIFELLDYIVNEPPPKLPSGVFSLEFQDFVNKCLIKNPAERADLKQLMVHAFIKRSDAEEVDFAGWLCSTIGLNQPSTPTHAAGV
Summary of the method: as §1

[9] = molecular target: T9, 380 human recombinant protein kinases (Homo sapiens, UniProt P29376); conditions: LTK(h), read-out: Inhibition rate
T9 construct: purchased Eurofins (Celle Lévescault)
T9 sequence (P29376 17-864): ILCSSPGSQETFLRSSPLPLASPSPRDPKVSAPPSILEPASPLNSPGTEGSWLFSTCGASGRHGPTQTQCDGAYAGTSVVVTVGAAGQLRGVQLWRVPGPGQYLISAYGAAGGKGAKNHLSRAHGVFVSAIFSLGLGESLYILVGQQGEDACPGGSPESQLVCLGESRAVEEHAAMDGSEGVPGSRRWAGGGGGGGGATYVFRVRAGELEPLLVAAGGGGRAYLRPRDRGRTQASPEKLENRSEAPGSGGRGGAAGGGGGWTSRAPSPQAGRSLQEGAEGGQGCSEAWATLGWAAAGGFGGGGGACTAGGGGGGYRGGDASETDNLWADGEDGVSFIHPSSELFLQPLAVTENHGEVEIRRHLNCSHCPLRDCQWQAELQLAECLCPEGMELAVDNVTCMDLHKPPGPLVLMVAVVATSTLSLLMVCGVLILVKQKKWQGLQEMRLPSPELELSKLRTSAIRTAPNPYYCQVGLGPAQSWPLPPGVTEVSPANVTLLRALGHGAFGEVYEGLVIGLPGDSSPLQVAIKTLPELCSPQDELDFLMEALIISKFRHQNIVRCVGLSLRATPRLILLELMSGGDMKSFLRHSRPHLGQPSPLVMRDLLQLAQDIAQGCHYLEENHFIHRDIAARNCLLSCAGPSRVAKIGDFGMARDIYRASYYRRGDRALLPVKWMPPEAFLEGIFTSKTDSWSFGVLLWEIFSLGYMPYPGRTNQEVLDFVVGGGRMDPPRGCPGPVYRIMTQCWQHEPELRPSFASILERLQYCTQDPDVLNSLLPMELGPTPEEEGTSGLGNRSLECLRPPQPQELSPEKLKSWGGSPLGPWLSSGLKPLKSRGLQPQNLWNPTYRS
Summary of the method: as §1

SMILES: C=CC(=O)Nc1cc(-c2cc(-c3cc4c([nH]3)CCNC4=O)ccn2)ccc1OC(F)(F)F [compound 11]
- inhibition at 0.01 µM ([1]; 10 nM): 20%
- inhibition at 0.1 µM ([1]; 100 nM): 76%
- inhibition at 1 µM ([1]; 1000 nM): 96%
- inhibition at 0.01 µM ([2]; 10 nM): -9%
- inhibition at 0.1 µM ([2]; 100 nM): -1%
- inhibition at 1 µM ([2]; 1000 nM): -2%
- inhibition at 0.01 µM ([3]; 10 nM): -1%
- inhibition at 0.1 µM ([3]; 100 nM): 9%
- inhibition at 1 µM ([3]; 1000 nM): 14%
- inhibition at 0.01 µM ([4]; 10 nM): -1%
- inhibition at 0.1 µM ([4]; 100 nM): -9%
- inhibition at 1 µM ([4]; 1000 nM): 2%
- inhibition at 0.01 µM ([5]; 10 nM): -10%
- inhibition at 0.1 µM ([5]; 100 nM): -4%
- inhibition at 1 µM ([5]; 1000 nM): 5%
- inhibition at 0.01 µM ([6]; 10 nM): -3%
- inhibition at 0.1 µM ([6]; 100 nM): -7%
- inhibition at 1 µM ([6]; 1000 nM): 4%
- inhibition at 0.01 µM ([7]; 10 nM): -1%
- inhibition at 0.1 µM ([7]; 100 nM): 11%
- inhibition at 1 µM ([7]; 1000 nM): 39%
- inhibition at 0.01 µM ([8]; 10 nM): -12%
- inhibition at 0.1 µM ([8]; 100 nM): -4%
- inhibition at 1 µM ([8]; 1000 nM): -8%
- inhibition at 0.01 µM ([9]; 10 nM): -6%
- inhibition at 0.1 µM ([9]; 100 nM): 2%
- inhibition at 1 µM ([9]; 1000 nM): 6%
